These results are taken from US20230081321A1, “CARBONIC ANHYDRASE II COMPOSITIONS AND METHODS OF USE THEREOF” (University of Florida Research Foundation, Incorporated, priority 2020, published 2023).

“Also recorded” adds a separate entry of the source.

The conditions of data set [1]: cited from earlier work.
Data set [2] deals with T1, CAII (Homo sapiens, UniProt P00918). As to conditions: CAII binding; cited from earlier work.
The target of data set [3] is T1, CAII. The data set can be described thus: CAII esterase inhibition assay with 4-nitrophenyl acetate (pNPA) as colorimetric substrate. To be noted: at physiologically relevant concentrations.
The next data set concerns mouse hearts. The data set can be described thus: Oxygen consumption by Langendorff-perfused mouse hearts. To be noted: 1 mM inhibitor, ex vivo Langendorff perfusion, C57BL6 mouse hearts, O2 in minus O2 out vs control solution. The protocol:
To test the effects of carbonic anhydrase inhibitors on oxygen consumption, Langendorff perfusion experiments were conducted using mouse hearts. Hearts were isolated from ˜12-week-old C57BL6 male mice and perfused ex vivo in Langendorff mode (retrograde perfusion via the aorta) with perfusate containing Krebs-Henseleit electrolytes with 2 mM acetate. The perfusate was constantly oxygenated with an oxygenator. […] The inhibitor solution was oxygenated by bubbling with 95% O2/5% CO2 mixed gas prior to adding.
Dissolved oxygen concentration was measured in the perfusate, or in the carbonic anhydrase inhibitor solution, using an Oxygraph+ system. […] In each figure, “O2 in” refers to the oxygen concentration in the perfusate prior to entering the heart or in the carbonic anhydrase inhibitor solution, and “O2 out” refers to the oxygen concentration in the perfusate after it passes through the heart.
Oxygen consumption was measured as the difference between the O2 in measurements and the O2 out measurements, and results are shown in FIG. 32.

On to `CC(=O)Oc1ccccc1C(=O)O` [Aspirin, Acetylsalicylic acid], for which, in data set [1], the half-life in blood is about 15 min.

`[Cu]` [copper]: the “specificity toward copper over zinc” value at CAII [2] is listed as 50 fold. Regarding `O=C(O)c1ccccc1O` [SA, salicylic acid], the “inhibition of CAII” value on CAII [3] is “completely inhibited CAII”. In the case of `CCN[C@H]1C[C@H](C)S(=O)(=O)c2sc(S(N)(=O)=O)cc21` [dorzolamide], the “oxygen consumption by the heart” value in the data set with mouse hearts is “increase in oxygen consumption; also recorded: increased oxygen consumption”. As for `CC(=O)Nc1nnc(S(N)(=O)=O)s1` [acetazolamide], the “oxygen consumption by the heart” value in the data set with mouse hearts is recorded as “increase in oxygen consumption; also recorded: increased oxygen consumption”.
